pIC50: −log10 of the molar value.
Target: Serine/threonine-protein kinase B-raf [V600E] (Homo sapiens, UniProt P15056, V600E)
Assay: Raf/Mek Amplified Luminescence Proximity Homogeneous Assay
Settings: pH 7.5
Description: Raf/Mek amplified luminescence proximity homogeneous assay.

Serine/threonine-protein kinase B-raf [V600E], sequence (P15056 2-766 V600E limits assumed): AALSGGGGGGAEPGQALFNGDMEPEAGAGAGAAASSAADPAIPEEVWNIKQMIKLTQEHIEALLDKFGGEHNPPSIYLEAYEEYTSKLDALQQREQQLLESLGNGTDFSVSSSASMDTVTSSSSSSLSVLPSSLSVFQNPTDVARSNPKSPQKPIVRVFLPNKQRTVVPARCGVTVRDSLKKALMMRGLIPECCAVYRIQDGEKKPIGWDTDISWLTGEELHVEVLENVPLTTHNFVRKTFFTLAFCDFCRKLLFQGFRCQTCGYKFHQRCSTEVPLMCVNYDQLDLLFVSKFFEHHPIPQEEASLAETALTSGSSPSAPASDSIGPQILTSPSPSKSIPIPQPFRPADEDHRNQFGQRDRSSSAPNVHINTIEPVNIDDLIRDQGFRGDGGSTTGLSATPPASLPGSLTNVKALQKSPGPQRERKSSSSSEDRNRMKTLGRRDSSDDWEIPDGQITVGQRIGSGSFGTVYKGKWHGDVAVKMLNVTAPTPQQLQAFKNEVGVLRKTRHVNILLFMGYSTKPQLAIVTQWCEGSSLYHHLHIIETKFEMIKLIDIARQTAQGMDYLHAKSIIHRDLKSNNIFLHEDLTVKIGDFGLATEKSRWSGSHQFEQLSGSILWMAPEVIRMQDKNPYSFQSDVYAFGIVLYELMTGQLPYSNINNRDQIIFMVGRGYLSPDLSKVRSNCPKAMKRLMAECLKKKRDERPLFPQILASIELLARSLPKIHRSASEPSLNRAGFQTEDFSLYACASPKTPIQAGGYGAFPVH

COC(=O)N[C@@H](C)CNc1nccc(-c2nc(C(C)(C)C)[nH]c2-c2cc(Cl)cc(NS(=O)(=O)C(F)(F)F)c2)n1 [US8563553, 52]
pIC50: 6.63
